Source: the supplement of paper PMC10307832

Assays:
Test in all cases: relative viability (nuclei count vs DMSO), 5 days (fraction); higher = more cells survive
IU1-47 + OSI-027 = compound: CC1=CC(=C(N1C2=CC=C(C=C2)Cl)C)C(=O)CN3CCCCC3 [IU1-47] + COc1cccc2cc(-c3nc([C@H]4CC[C@H](C(=O)O)CC4)n4ncnc(N)c34)[nH]c12 [OSI-027] (partner 0.5 µM)
Outline: (§1)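 Relative viability is defined as nuclei in treated wells over nuclei in vehicle wells. Duplicate plates were run and medians reported. Lung cancer cell lines in 1536-well plates were dosed by pin tool one day after seeding, with one drug or with a fixed anchor-drug dose plus five library-drug doses (not always all listed) in √10 steps, and nuclei were counted after 5 days.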

IU1-47 + Decitabine = compound: CC1=CC(=C(N1C2=CC=C(C=C2)Cl)C)C(=O)CN3CCCCC3 [IU1-47] + Nc1ncn([C@H]2C[C@H](O)[C@@H](CO)O2)c(=O)n1 [Decitabine] (partner 2 µM)
Outline: as §1

FG-4592 + OSI-027 = compound: Cc1nc(C(=O)NCC(=O)O)c(O)c2ccc(Oc3ccccc3)cc12 [FG-4592] + COc1cccc2cc(-c3nc([C@H]4CC[C@H](C(=O)O)CC4)n4ncnc(N)c34)[nH]c12 [OSI-027] (partner 0.5 µM)
Outline: as §1

IU1-47 + Crizotinib = compound: CC1=CC(=C(N1C2=CC=C(C=C2)Cl)C)C(=O)CN3CCCCC3 [IU1-47] + C[C@@H](Oc1cc(-c2cnn(C3CCNCC3)c2)cnc1N)c1c(Cl)ccc(F)c1Cl [Crizotinib] (partner 1 µM)
Outline: as §1

| Cell Line | relative viability (IU1-47 + OSI-027; first compound 0.08 µM) | relative viability (IU1-47 + OSI-027; first compound 0.253 µM) | relative viability (IU1-47 + OSI-027; first compound 0.8 µM) | relative viability (IU1-47 + OSI-027; first compound 8 µM) | relative viability (IU1-47 + Decitabine; first compound 0.08 µM) | relative viability (IU1-47 + Decitabine; first compound 0.8 µM) | relative viability (IU1-47 + Decitabine; first compound 2.53 µM) | relative viability (IU1-47 + Decitabine; first compound 8 µM) | relative viability (FG-4592 + OSI-027; first compound 0.08 µM) | relative viability (FG-4592 + OSI-027; first compound 0.253 µM) | relative viability (FG-4592 + OSI-027; first compound 2.53 µM) | relative viability (FG-4592 + OSI-027; first compound 8 µM) | relative viability (IU1-47 + OSI-027; first compound 2.53 µM) | relative viability (IU1-47 + Crizotinib; first compound 0.08 µM) | relative viability (IU1-47 + Crizotinib; first compound 0.253 µM) | relative viability (IU1-47 + Crizotinib; first compound 0.8 µM) | relative viability (IU1-47 + Crizotinib; first compound 2.53 µM) | relative viability (IU1-47 + Crizotinib; first compound 8 µM) | relative viability (IU1-47 + Decitabine; first compound 0.253 µM) | relative viability (FG-4592 + OSI-027; first compound 0.8 µM) |
| --- | --- | --- | --- | --- | --- | --- | --- | --- | --- | --- | --- | --- | --- | --- | --- | --- | --- | --- | --- | --- |
| NCI-H1793 | 0.245 | 0.25 | 0.37 | 0.286 | 0.53 | 0.538 | 0.507 | 0.426 | 0.223 | 0.229 | 0.178 | 0.254 |  |  |  |  |  |  |  |  |
| NCI-H2023 | 0.375 | 0.391 | 0.436 | 0.352 | 0.182 | 0.215 | 0.248 | 0.225 | 0.402 | 0.359 | 0.356 | 0.241 | 0.259 | 0.663 | 0.67 | 0.645 | 0.78 | 0.581 | 0.212 | 0.428 |
| COR-L 105 | 0.746 | 0.634 | 0.711 | 0.57 | 0.793 | 0.677 | 0.751 | 0.66 | 0.555 | 0.602 | 0.551 | 0.435 | 0.581 | 0.793 | 0.839 | 0.767 | 0.94 | 0.627 | 0.624 | 0.767 |
| NCI-H522 | 0.751 | 0.592 | 0.56 | 0.619 | 0.67 | 0.739 | 0.763 | 0.634 | 0.739 | 0.738 | 0.594 | 0.574 | 0.572 |  |  |  |  |  | 0.64 | 0.727 |
| NCI-H1299 |  |  |  |  |  |  |  |  |  |  |  |  |  | 0.965 | 0.93 | 0.977 | 0.972 | 0.834 |  |  |
| NCI-H1648 | 0.264 | 0.295 | 0.251 | 0.277 | 0.546 | 0.664 | 0.387 | 0.444 | 0.275 | 0.285 | 0.258 | 0.28 | 0.266 |  |  |  |  |  | 0.496 | 0.302 |
| NCI-H2342 | 0.668 | 0.69 | 0.578 | 0.619 | 0.81 | 0.755 | 0.688 | 0.747 | 0.594 | 0.648 | 0.585 | 0.57 | 0.517 |  |  |  |  |  | 0.766 | 0.631 |
| SW 900 | 0.508 | 0.45 | 0.677 | 0.414 | 0.414 | 0.447 | 0.452 | 0.353 | 0.424 | 0.546 | 0.491 | 0.534 | 0.61 |  |  |  |  |  |  | 0.493 |
| NCI-H1395 | 0.58 | 0.621 | 0.665 | 0.554 | 0.687 | 0.699 | 0.704 | 0.713 | 0.593 | 0.644 | 0.612 | 0.549 | 0.387 |  |  |  |  |  | 0.802 | 0.56 |
| A549 |  |  |  |  | 0.284 | 0.335 | 0.253 | 0.221 |  |  |  |  |  | 0.685 | 0.847 | 0.607 | 0.612 | 0.579 | 0.321 |  |
| NCI-H1563 | 0.809 | 0.782 | 0.785 | 0.663 |  |  |  |  | 0.78 | 0.785 | 0.701 | 0.606 | 0.757 | 0.877 | 0.791 | 0.882 | 0.86 | 0.802 |  | 0.718 |
